Laboratory results from patent publication US20050170502A1, “Methods for maintaining hepatocytes in culture and for differentiating embryonic stem cells along a hepatocyte lineage” (REGENTS OF THE UNIVERSITY OF CALIFORNIA, priority 2003, published 2005).

These molecules were tested on mouse ES cells (ES-D3) (assay: Hepatocyte-specific gene expression in differentiated mouse ES cells, real-time quantitative RT-PCR). Conditions: also in murine ES cells.
Experimental: Mouse ES cell line ES-D3 and mouse STO fibroblasts were obtained from the American Type Culture Collection, Manassas, Va. ES cells were expanded on STO fibroblast feeder layers in Dulbecco's modified Eagle's medium (DMEM) (unless specified, cell culture supplies were from Invitrogen, Carlsbad, Calif.) containing 15% fetal bovine serum (FBS), 1 mM L-glutamine, 60 μM non-essential amino acid solution, 0.1 mM 2-mercaptoethanol, 10 mM HEPES (Sigma-Aldrich, Saint Louis, Mo.), 1400 U/ml leukemia inhibitory factor (LIF) (Chemicon International, Temecula, Calif.), and penicillin/streptomycin at standard concentrations. To prepare feeder layers, STO fibroblasts were cultured until confluent and treated with 10 μg/ml mitomycin C (Sigma-Aldrich) for 4 hours. Mitomycin C-treated STO fibroblasts were then re-seeded at a density of 7-8×10^4/cm^2 one day before plating ES cells. […] These culture conditions stimulated the formation of non-attached embryoid bodies (EBs): Five days later, EBs were placed on different substratum pre-coated 6-well tissue culture plates in various media formulations, and the expression of hepatocyte-specific genes was examined at day 8-75 (FIG. 1A). Substrata used for pre-coating included gelatin, collagen type I (Sigma-Aldrich), collagen type IV, laminin, fibronectin and poly-D-lysine (Becton Dickinson Labware, Bedford, Mass.). The following culture media were tested for ES cells differentiation: DMEM, Williams' medium E (WME), and Iscove's modified Dulbecco's medium (IMDM), all supplemented with 10 to 20% FBS, 0.3 mM monothioglycerol (Sigma-Aldrich), penicillin/streptomycin at standard concentrations, and a range of growth and differentiation factors including hepatocyte growth factor (HGF, 20 ng/ml), nerve growth factor (NGF, 100 ng/ml), epidermal growth factor (EGF, 100 ng/ml), acidic fibroblast growth factor (aFGF, 100 ng/ml), basic fibroblast growth factor (bFGF, 100 ng/ml) (Li, X. et al., J. Cell. Biol. 153:811-822 (2001)), all-trans-retinoic acid (RA, 1 μM) (Makita, T. et al., Genes. Dev. 15:889-901 (2001)), oncostatin M (OnM, 10 ng/ml) (Kamiya, A. et al., EMBO. J. 18:2127-2136 (1999)), bovine insulin (0.126 U/ml), dexamethasone (100 nM) (all from Sigma-Aldrich), and human insulin (0.126 U/ml) (Eli Lilly and Company, Indianapolis, Ind.). Growth and differentiation factors were added to the culture media at final concentrations as indicated above. In addition, EBs were also cultured in medium that was previously used to induce multipotent adult progenitor cells (MAPC) from mouse bone marrow to differentiate into functional hepatocyte-like cells (Schwartz, R. E. et al., J. Clin. Invest. 109:1291-1302 (2002)).
Total RNA was extracted with RNeasy Mini Kit (Qiagen, Valencia, Calif.). Real time quantitative RT-PCR was employed for the determination of gene expression as described in detail previously by our group (Wege, H. et al., Gastroenterology 124:432-444 (2003)). In brief, one μg RNA was used to generate cDNA after treatment with deoxyribonuclease I (Invitrogen). First-strand synthesis was performed employing the Thermoscript RT-PCR System (Invitrogen) with random hexamers. Relative mouse or human gene expression analysis (ΔΔCT) was performed by real-time quantitative PCR with the ABI Prism 7700 Sequence Detection System and SYBR PCR Green Master Mix or TaqMan PCR Master Mix (Applied Biosystems, Foster City, Calif.). Primer pairs and hybridization probes for mouse or human albumin, prealbumin (transthyretin), alphal-antitrypsin (α1-AT), glucose-6-phosphatase (G6P), cytokeratin 19 (CK19), γ-glutamyl transferase (GGT), and β-actin, were synthesized, and primer concentrations were optimized for specific amplification at 60° C. […] Expression levels were normalized using mouse β-actin or human glyceraldehyde phosphate dehydrogenase (GAPDH) as an endogenous control. Normalized expression of hepatocyte-specific genes was compared to levels detected in primary adult mouse or human hepatocytes.

Molecule | production of hepatocyte-specific proteins compared with bovine insulin
human insulin: human insulin (Eli Lilly and Company), growth factor added to the culture medium | higher production

Same assay, conditions: mouse ES cells, IMDM, collagen type I, day 33, FIG. 2A

Molecule | albumin gene expression (effect of individual growth and differentiation factors)
CC1=C(/C=C/C(C)=C/C=C/C(C)=C/C(=O)O)C(C)(C)CCC1 [RA, all-trans-retinoic acid] | only minor positive or even negative effects
C[C@@H]1C[C@H]2[C@@H]3CCC4=CC(=O)C=C[C@]4(C)[C@@]3(F)[C@@H](O)C[C@]2(C)[C@@]1(O)C(=O)CO [dexamethasone, 9-fluoro-11β,17,21-trihydroxy-16α-methylpregna-1,4-diene-3,20-dione] | most effective
HGF: hepatocyte growth factor | only minor positive or even negative effects
NGF: nerve growth factor | only minor positive or even negative effects
aFGF: acidic fibroblast growth factor | only minor positive or even negative effects
bFGF: basic fibroblast growth factor | only minor positive or even negative effects
hEGF: human epidermal growth factor (NSDSECPLSHDGYCLHDGVCMYIEALDKYACNCVVGYIGERCQYRDLKWWELR; UniProt P01133 971-1023, looked up) | only minor positive or even negative effects
human insulin: human insulin (Eli Lilly and Company), growth factor added to the culture medium | most effective
mEGF: mouse epidermal growth factor (NSYPGCPSSYDGYCLNGGVCMHIESLDSYTCNCVIGYSGDRCQTRDLRWWELR; not fully specified; Epidermal growth factor; UniProt P01132 977-1029, looked up) | only minor positive or even negative effects
